System: yeast genes (expressed mRNA)
Assay: DNA chip measurement of expressed mRNA of yeast genes after culture with a toxic chemical substance
Format: cell-based, Saccharomyces cerevisiae S288C
How it was run: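 Two-hour exposure of growing S. cerevisiae S288C (YPD, 25° C) to a sublethal toxicant preceded RNA isolation. Fluorescent cDNA was hybridized to a whole-genome array; a treated-to-untreated signal ratio of two or more was taken as significant.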

For `N#Cc1c(Cl)c(Cl)c(Cl)c(C#N)c1Cl` [(9), 2,4,5,6-Tetrachloro-1,3-benzenedicarbonitrile], the “The level of expressed mRNA in the presence of chemical substance/The level of expressed mRNA in the absence of chemical substance” value (yeast gene YJL108C, cultured two hours with substance) was 0.3, the “The level of expressed mRNA in the presence of chemical substance/The level of expressed mRNA in the absence of chemical substance” value (yeast gene YJL144W, cultured two hours with substance) was 14.6 and the “The level of expressed mRNA in the presence of chemical substance/The level of expressed mRNA in the absence of chemical substance” value (yeast gene YJL149W, cultured two hours with substance) was 1.5. The “The level of expressed mRNA in the presence of chemical substance/The level of expressed mRNA in the absence of chemical substance” value (yeast gene YJL151C, cultured two hours with substance) was 0.5, the “The level of expressed mRNA in the presence of chemical substance/The level of expressed mRNA in the absence of chemical substance” value (yeast gene YJL152W, cultured two hours with substance) was 0.3 and the “The level of expressed mRNA in the presence of chemical substance/The level of expressed mRNA in the absence of chemical substance” value (yeast gene YJL161W, cultured two hours with substance) was 3.1. The “The level of expressed mRNA in the presence of chemical substance/The level of expressed mRNA in the absence of chemical substance” value (yeast gene YJL163C, cultured two hours with substance) was 14.5, the “The level of expressed mRNA in the presence of chemical substance/The level of expressed mRNA in the absence of chemical substance” value (yeast gene YJL171C, cultured two hours with substance) was 1.0 and the “The level of expressed mRNA in the presence of chemical substance/The level of expressed mRNA in the absence of chemical substance” value (yeast gene YJL186W, cultured two hours with substance) was 0.2. The “The level of expressed mRNA in the presence of chemical substance/The level of expressed mRNA in the absence of chemical substance” value (yeast gene YJR008W, cultured two hours with substance) was 1.8, the “The level of expressed mRNA in the presence of chemical substance/The level of expressed mRNA in the absence of chemical substance” value (yeast gene YJR074W, cultured two hours with substance) was 3.7 and the “The level of expressed mRNA in the presence of chemical substance/The level of expressed mRNA in the absence of chemical substance” value (yeast gene YJR085C, cultured two hours with substance) was 3.7. The “The level of expressed mRNA in the presence of chemical substance/The level of expressed mRNA in the absence of chemical substance” value (yeast gene YJR155W) was 38.2, the “The level of expressed mRNA in the presence of chemical substance/The level of expressed mRNA in the absence of chemical substance” value (yeast gene YJR155W, cultured for two hours with substance) was 38.2 and the “The level of expressed mRNA in the presence of chemical substance/The level of expressed mRNA in the absence of chemical substance” value (yeast gene YKL071W, cultured two hours with substance) was 162.2. The “The level of expressed mRNA in the presence of chemical substance/The level of expressed mRNA in the absence of chemical substance” value (yeast gene YKL086W, cultured two hours with substance) was 8.2, the “The level of expressed mRNA in the presence of chemical substance/The level of expressed mRNA in the absence of chemical substance” value (yeast gene YKL107W, cultured two hours with substance) was 28.2 and the “The level of expressed mRNA in the presence of chemical substance/The level of expressed mRNA in the absence of chemical substance” value (yeast gene YKL151C, cultured two hours with substance) was 3.3. The “The level of expressed mRNA in the presence of chemical substance/The level of expressed mRNA in the absence of chemical substance” value (yeast gene YKL153W, cultured two hours with substance) was 0.8, the “The level of expressed mRNA in the presence of chemical substance/The level of expressed mRNA in the absence of chemical substance” value (yeast gene YKL195W, cultured two hours with substance) was 3.6 and the “The level of expressed mRNA in the presence of chemical substance/The level of expressed mRNA in the absence of chemical substance” value (yeast gene YKR091W, cultured two hours with substance) was 1.0. For the same molecule, the “The level of expressed mRNA in the presence of chemical substance/The level of expressed mRNA in the absence of chemical substance” value (yeast gene YLL055W (transport facilitation protein gene)) was 19.1, the “The level of expressed mRNA in the presence of chemical substance/The level of expressed mRNA in the absence of chemical substance” value (yeast gene YLL056C, cultured two hours with substance) was 58.8 and the “The level of expressed mRNA in the presence of chemical substance/The level of expressed mRNA in the absence of chemical substance” value (yeast gene YLL060C (stress protein genes)) was 13.0. For the same molecule, the “The level of expressed mRNA in the presence of chemical substance/The level of expressed mRNA in the absence of chemical substance” value (yeast gene YLL062C, cultured two hours with substance) was 14.9, the “The level of expressed mRNA in the presence of chemical substance/The level of expressed mRNA in the absence of chemical substance” value (yeast gene YLR031W, cultured two hours with substance) was 0.9 and the “The level of expressed mRNA in the presence of chemical substance/The level of expressed mRNA in the absence of chemical substance” value (yeast gene YLR054C, cultured two hours with substance) was 2.7. The “The level of expressed mRNA in the presence of chemical substance/The level of expressed mRNA in the absence of chemical substance” value (yeast gene YLR149C, cultured two hours with substance) was 6.2, the “The level of expressed mRNA in the presence of chemical substance/The level of expressed mRNA in the absence of chemical substance” value (yeast gene YLR152C, cultured two hours with substance) was 0.6 and the “The level of expressed mRNA in the presence of chemical substance/The level of expressed mRNA in the absence of chemical substance” value (yeast gene YLR194C, cultured two hours with substance) was 0.9. For the same molecule, the “The level of expressed mRNA in the presence of chemical substance/The level of expressed mRNA in the absence of chemical substance” value (yeast gene YLR204W, cultured two hours with the substance) was 1.4, the “The level of expressed mRNA in the presence of chemical substance/The level of expressed mRNA in the absence of chemical substance” value (yeast gene YLR205C, cultured two hours with substance) was 1.5 and the “The level of expressed mRNA in the presence of chemical substance/The level of expressed mRNA in the absence of chemical substance” value (yeast gene YLR324W, cultured two hours with substance) was 3.1. For the same molecule, the “The level of expressed mRNA in the presence of chemical substance/The level of expressed mRNA in the absence of chemical substance” value (yeast gene YLR350W, cultured two hours with substance) was 0.6, the “The level of expressed mRNA in the presence of chemical substance/The level of expressed mRNA in the absence of chemical substance” value (yeast gene YLR387C, cultured two hours with substance) was 7.8 and the “The level of expressed mRNA in the presence of chemical substance/The level of expressed mRNA in the absence of chemical substance” value (yeast gene YLR460C, cultured two hours with substance) was 13.9. For the same molecule, the “The level of expressed mRNA in the presence of chemical substance/The level of expressed mRNA in the absence of chemical substance” value (yeast gene YML117W, cultured two hours with substance) was 1.0, the “The level of expressed mRNA in the presence of chemical substance/The level of expressed mRNA in the absence of chemical substance” value (yeast gene YMR009W, cultured two hours with substance) was 3.4 and the “The level of expressed mRNA in the presence of chemical substance/The level of expressed mRNA in the absence of chemical substance” value (yeast gene YMR067C, cultured two hours with substance) was 4.0. The “The level of expressed mRNA in the presence of chemical substance/The level of expressed mRNA in the absence of chemical substance” value (yeast gene YMR090W, cultured two hours with substance) was 16.7, the “The level of expressed mRNA in the presence of chemical substance/The level of expressed mRNA in the absence of chemical substance” value (yeast gene YMR097C, cultured two hours with substance) was 2.1 and the “The level of expressed mRNA in the presence of chemical substance/The level of expressed mRNA in the absence of chemical substance” value (yeast gene YMR102C, cultured two hours with substance) was 1.7. For the same molecule, the “The level of expressed mRNA in the presence of chemical substance/The level of expressed mRNA in the absence of chemical substance” value (yeast gene YMR107W, cultured two hours with substance) was 6.0, the “The level of expressed mRNA in the presence of chemical substance/The level of expressed mRNA in the absence of chemical substance” value (yeast gene YMR140W, cultured two hours with substance) was 1.8 and the “The level of expressed mRNA in the presence of chemical substance/The level of expressed mRNA in the absence of chemical substance” value (yeast gene YMR180C, cultured two hours with substance) was 1.8. For the same molecule, the “The level of expressed mRNA in the presence of chemical substance/The level of expressed mRNA in the absence of chemical substance” value (yeast gene YMR184W, cultured two hours with substance) was 2.1, the “The level of expressed mRNA in the presence of chemical substance/The level of expressed mRNA in the absence of chemical substance” value (yeast gene YMR191W, cultured two hours with substance) was 2.2 and the “The level of expressed mRNA in the presence of chemical substance/The level of expressed mRNA in the absence of chemical substance” value (yeast gene YMR195W, cultured two hours with substance) was 0.2. For the same molecule, the “The level of expressed mRNA in the presence of chemical substance/The level of expressed mRNA in the absence of chemical substance” value (yeast gene YMR295C, cultured two hours with substance) was 1.0 and the “The level of expressed mRNA in the presence of chemical substance/The level of expressed mRNA in the absence of chemical substance” value (yeast gene YMR315W, cultured two hours with substance) was 2.4.
